What was measured:
Assay in all cases: relative viability (nuclei count vs DMSO), 5 days (fraction); higher = more cells survive
Tosedostat + Lapatinib = compound: CC(C)C[C@@H](C(=O)N[C@H](C(=O)OC1CCCC1)c1ccccc1)[C@H](O)C(=O)NO [Tosedostat] + CS(=O)(=O)CCNCc1ccc(-c2ccc3ncnc(Nc4ccc(OCc5cccc(F)c5)c(Cl)c4)c3c2)o1 [Lapatinib] (partner 2 µM)
In short: (§1)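 For relative viability, nuclei counts in treated wells were divided by those in vehicle wells. Lung cancer cell lines had been pin-tool dosed in 1536-well plates the day after seeding and cultured for 5 days, then fixed and stained in one step (final 0.05% Triton X-100, 1% formaldehyde, 1 ug/ml Hoechst) and imaged at 4×. Doses were one drug alone or a fixed anchor-drug dose plus five library-drug doses (not always all listed) in √10 steps, and values are duplicate-plate medians.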

[1] = compound: CC1=NN=C(O1)C2=NN=C(C=C2)N3CCC(CC3)OC4=C(C=CC(=C4)F)Cl + Cc1nc(NC(=O)N2CCC[C@H]2C(N)=O)sc1-c1ccnc(C(C)(C)C(F)(F)F)c1 [Alpelisib] (partner 2 µM)
In short: as §1

Tosedostat + Pictilisib = compound: CC(C)C[C@@H](C(=O)N[C@H](C(=O)OC1CCCC1)c1ccccc1)[C@H](O)C(=O)NO [Tosedostat] + CS(=O)(=O)N1CCN(Cc2cc3nc(-c4cccc5[nH]ncc45)nc(N4CCOCC4)c3s2)CC1 [Pictilisib] (partner 1 µM)
In short: as §1

[2] = compound: CC1=NN=C(O1)C2=NN=C(C=C2)N3CCC(CC3)OC4=C(C=CC(=C4)F)Cl + CS(=O)(=O)CCNCc1ccc(-c2ccc3ncnc(Nc4ccc(OCc5cccc(F)c5)c(Cl)c4)c3c2)o1 [Lapatinib] (partner 2 µM)
In short: as §1

Cell Line | relative viability (Tosedostat + Lapatinib; first compound 0.02 µM) | relative viability (Tosedostat + Lapatinib; first compound 0.06325 µM) | relative viability (Tosedostat + Lapatinib; first compound 0.2 µM) | relative viability (Tosedostat + Lapatinib; first compound 0.6325 µM) | relative viability (Tosedostat + Lapatinib; first compound 2 µM) | relative viability ([1]; first compound 0.253 µM) | relative viability ([1]; first compound 0.8 µM) | relative viability ([1]; first compound 2.53 µM) | relative viability ([1]; first compound 8 µM) | relative viability (Tosedostat + Pictilisib; first compound 0.02 µM) | relative viability (Tosedostat + Pictilisib; first compound 0.06325 µM) | relative viability (Tosedostat + Pictilisib; first compound 0.2 µM) | relative viability (Tosedostat + Pictilisib; first compound 0.6325 µM) | relative viability (Tosedostat + Pictilisib; first compound 2 µM) | relative viability ([2]; first compound 0.253 µM) | relative viability ([2]; first compound 0.8 µM) | relative viability ([2]; first compound 2.53 µM) | relative viability ([2]; first compound 8 µM)
ABC-1 | 1.34 | 1.12 | 1.2 | 1.19 | 1.23 | 0.729 | 0.567 | 0.568 | 0.642 | 1 | 0.622 | 0.616 | 0.722 | 0.535 | 1.13 | 1.07 | 0.92 | 0.887
SW 1573 | 1.18 | 1.12 | 1.19 | 1.05 | 1.05 | 0.753 | 0.722 | 0.701 | 0.791 | 0.477 | 0.485 | 0.484 | 0.485 | 0.388 | 1.03 | 1.09 | 0.877 | 0.932
A549 | 1 | 1.07 | 0.957 | 0.925 | 0.939 | 0.573 | 0.666 | 0.581 | 0.463 | 0.606 | 0.513 | 0.495 | 0.469 | 0.521 | 0.523 | 0.365 | 0.4 | 0.425
A-427 | 1.13 | 1.1 | 1.01 | 1.02 | 0.995 | 1.05 | – | 1.02 | 0.882 | 0.736 | 0.643 | 0.727 | 0.662 | 0.564 | 0.818 | – | 0.825 | 0.54
NCI-H2009 | 1.25 | 0.956 | 1.03 | 0.78 | 0.663 | 0.712 | 0.714 | 0.646 | 0.626 | 1.14 | 0.841 | 0.682 | 0.732 | 0.524 | 0.453 | 0.421 | 0.427 | 0.464
LCLC-97TM1 | 0.951 | – | – | 0.641 | 0.766 | 0.28 | – | 0.237 | 0.292 | 0.177 | – | – | 0.147 | 0.186 | 0.827 | – | 0.553 | 0.687
NCI-H1792 | 0.988 | 1.04 | 0.878 | 0.863 | 0.823 | 0.397 | 0.432 | 0.264 | 0.448 | 0.282 | 0.279 | 0.272 | 0.232 | 0.276 | 0.417 | 0.436 | 0.404 | 0.502
LCLC-103H | – | – | – | – | – | 0.792 | 0.946 | 0.775 | 0.776 | 0.733 | 0.567 | 0.666 | 0.714 | 0.54 | – | – | – | –
LOU-NH91 | 0.8 | 0.88 | 0.875 | 0.868 | 0.778 | – | 0.649 | 0.713 | 0.726 | 0.594 | 0.53 | 0.568 | 0.495 | 0.501 | – | 0.7 | 0.717 | 0.687
BEN | 0.924 | 0.936 | 0.68 | 0.987 | 0.702 | 0.767 | 0.899 | 1.05 | 0.901 | 0.679 | 0.622 | 0.556 | 0.752 | 0.804 | 0.607 | 0.729 | 0.743 | 0.61
NCI-H1755 | 1.1 | 1.08 | 1.09 | 1.1 | 1.13 | 0.713 | 0.697 | 0.709 | 0.671 | 0.461 | 0.489 | 0.38 | 0.376 | 0.276 | 0.59 | 0.708 | 0.665 | 0.592
LC-2-ad | 1.02 | 0.981 | 0.993 | 0.909 | 1.04 | 0.429 | 0.371 | 0.382 | 0.341 | 0.269 | 0.429 | 0.661 | 0.458 | 0.455 | 0.291 | 0.271 | 0.335 | 0.262
NCI-H1975 | 0.835 | 0.966 | 0.86 | 0.703 | 0.751 | – | 0.725 | 0.753 | 0.779 | 0.28 | 0.311 | 0.252 | 0.25 | 0.241 | – | 0.746 | 0.859 | 0.753
ChaGo-K-1 | – | – | – | – | – | – | – | – | – | 1.1 | 0.813 | 0.754 | 0.812 | 0.638 | – | – | – | –
COR-L 105 | 0.415 | 0.412 | 0.326 | 0.416 | 0.358 | 0.925 | 1.03 | 1.12 | 1.29 | 0.451 | 0.414 | 0.379 | 0.319 | 0.356 | 0.349 | 0.36 | 0.332 | 0.417
NCI-H2085 | 0.568 | 0.825 | 0.827 | 0.743 | 0.836 | 0.922 | 0.908 | 0.8 | 0.71 | 0.445 | 0.518 | 0.512 | 0.593 | 0.481 | 0.644 | 0.627 | 0.752 | 0.612
Calu-6 | 1.33 | 1.04 | 0.951 | 0.899 | 0.864 | 0.808 | 0.864 | 0.895 | 0.846 | 0.975 | 0.87 | 0.778 | 0.757 | 0.651 | 0.65 | 0.604 | 0.636 | 0.557
NCI-H2087 | 1.08 | 1.1 | 1.1 | 0.907 | 0.844 | 0.762 | 0.674 | 0.615 | 0.615 | 1.09 | 0.791 | 0.946 | 0.529 | 0.684 | 0.618 | 0.56 | 0.554 | 0.51
NCI-H1650 | 0.983 | 0.828 | 0.863 | 0.997 | 0.918 | – | – | – | – | 0.696 | 0.599 | 0.652 | 0.645 | 0.558 | – | 0.71 | 0.691 | 0.566
NCI-H322M | 0.665 | 0.577 | 0.542 | 0.55 | 0.446 | 0.0721 | 0.707 | 0.7 | 0.747 | 0.532 | 0.408 | 0.45 | 0.486 | 0.391 | 0.467 | 0.581 | 0.592 | 0.551
